These results are taken from patent US10183944B2 (Asana Biosciences, LLC, priority 2011, dated 2019).

Where two headings read alike, the source gives them in different places. Some results are limits rather than exact numbers.

For test [1], the target named is Syk (356-635 amino acids) catalytic domain (Homo sapiens (Human), UniProt P43405). The test is described as follows: Inhibition of enzymatic Syk kinase activity (radiometric). Type of test: biochemical. The method in brief: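 Human Syk (356-635) kinase domain (0.035–7.5 ng/reaction) preincubated with compound 30 minutes at room temperature, then reacted with pG4T substrate, 100 μM ATP (stock) and γ-32P-ATP for 10 minutes at 30° C. Reaction stopped with HCl/ATP, spotted on P81 paper, washed and counted by scintillation. Percent inhibition versus no-compound counts.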

In test [2] the target is JAK2 (Homo sapiens (Human), UniProt O60674). The experiment in a line: Inhibition of enzymatic JAK2 kinase activity (TR-FRET). Type of test: biochemical. The method in brief: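 Enzyme preincubated with compound 30 min at RT, then Ulight-poly-GT substrate and ATP added for 60 min at RT. EDTA stop, Eu-antiphosphotyrosine antibody; TR-FRET ratio 665/615 nm (ex 340 nm), blank-corrected; % inhibition versus positive control.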
Chain of JAK2 (O60674 808-1132): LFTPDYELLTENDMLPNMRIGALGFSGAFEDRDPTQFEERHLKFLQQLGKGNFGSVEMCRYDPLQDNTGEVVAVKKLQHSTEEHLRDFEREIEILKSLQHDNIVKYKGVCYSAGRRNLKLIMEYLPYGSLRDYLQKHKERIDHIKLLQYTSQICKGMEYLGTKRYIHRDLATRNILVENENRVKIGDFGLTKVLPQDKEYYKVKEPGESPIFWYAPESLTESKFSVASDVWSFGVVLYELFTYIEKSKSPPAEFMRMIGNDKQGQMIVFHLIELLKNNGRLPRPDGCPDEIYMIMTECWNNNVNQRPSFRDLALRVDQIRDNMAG
For orientation: Time-resolved FRET reads energy transfer from a long-lived donor to a nearby acceptor.

For test [3], the system named is RBL2H3 cells. The test is described as follows: Degranulation assay: β-hexosaminidase release during immune complex mediated degranulation. Type of test: cell-based, rat. Particulars: Rattus norvegicus. The method in brief: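 RBL2H3 cells sensitized overnight (or 24 h) with anti-DNP rat IgE, pretreated 15 min with compounds in 0.5% DMSO, then challenged with DNP-BSA for 45–60 min. β-Hexosaminidase in supernatant read fluorometrically (Ex 355/Em 460 nm) with β-NAG substrate, 30 min RT; % release/inhibition calculated.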

Setting [4] is: RBL-2H3, 1 μM, Assay Protocol B (96 well format), read-out: Degranulation % inhibition at 1 μM.
Where [5] appears, read: RBL-2H3, Assay Protocol B (96 well format), read-out: Degranulation EC50.

Usually IC50 stands for the concentration at which inhibition is half-maximal. Broadly, the inhibition is the drop in the measured response relative to a control, in per cent. For orientation: EC50 means the concentration at which the effect is half-maximal.

As for `CCN1CCN(c2ccc(Nc3nc(N4CCCCCC4)nc4cn[nH]c(=O)c34)cc2)CC1` [Example 180, 2-(azepan-1-yl)-4-((4-(4-ethylpiperazin-1-yl)phenyl)amino)pyrimido[4,5-d]pyridazin-5(6H)-one], the IC50 in test [1] (read-out: IC50 Syk) and in test [2] (read-out: IC50 JAK) was below 10 nM throughout. Besides, the inhibition at 1 µM in test [3] (setting [4]) is 70%. The EC50 in test [3] (setting [5]) was 3 nM.

For the compound `O=c1[nH]ncc2nc(N3CCCCC3)nc(Nc3ccc(OCCN4CCC(O)CC4)cc3)c12` [Example 183, 4-((4-(2-(4-hydroxypiperidin-1-yl)ethoxy)phenyl)amino)-2-(piperidin-1-yl)pyrimido[4,5-d]pyridazin-5(6H)-one], the IC50 in test [1] (read-out: IC50 Syk) is below 10 nM; in test [2] (read-out: IC50 JAK), below 50 nM. In test [3] (setting [4]), the inhibition at 1 µM worked out at 41%. The EC50 in test [3] (setting [5]) is 83 nM.

Take `CC1(O)CCN(CCOc2ccc(Nc3nc(N4CCCCCC4)nc4cn[nH]c(=O)c34)cc2)CC1` [Example 184, 2-(azepan-1-yl)-4-((4-(2-(4-hydroxy-4-methylpiperidin-1-yl)ethoxy)phenyl)amino)pyrimido[4,5-d]pyridazin-5(6H)-one]: the IC50 in test [1] (read-out: IC50 Syk) and in test [2] (read-out: IC50 JAK) was below 10 nM throughout. Besides, the inhibition at 1 µM in test [3] (setting [4]) came out at 65%. The EC50 in test [3] (setting [5]) is 33 nM.

For the compound `CC1(O)CCN(CCOc2ccc(Nc3nc(N4CCC(CC#N)CC4)nc4cn[nH]c(=O)c34)cc2)CC1` [Example 185, 2-(1-(4-((4-(2-(4-hydroxy-4-methylpiperidin-1-yl)ethoxy)phenyl)amino)-5-oxo-5,6-dihydropyrimido[4,5-d]pyridazin-2-yl)piperidin-4-yl)acetonitrile], the IC50 is below 10 nM in test [1] (read-out: IC50 Syk) and below 50 nM in test [2] (read-out: IC50 JAK). Further, in test [3] (setting [4]), the inhibition at 1 µM worked out at 83%. Also, the EC50 in test [3] (setting [5]) turned out to be 29 nM.

As to `O=c1[nH]ncc2nc(N3CCCCCC3)nc(Nc3ccc(N4CCC(O)CC4)cc3)c12` [Example 186, 2-(azepan-1-yl)-4-((4-(4-hydroxypiperidin-1-yl)phenyl)amino) pyrimido[4,5-d]pyridazin-5(6H)-one], the IC50 in test [1] (read-out: IC50 Syk) is below 10 nM; in test [2] (read-out: IC50 JAK), below 100 nM. In addition, the inhibition at 1 µM in test [3] (setting [4]) amounted to 93%. The EC50 in test [3] (setting [5]) turned out to be 10 nM.

For the compound `CCN1CCN(c2ccc(Nc3nc(N4CCC(CC#N)CC4)nc4cn[nH]c(=O)c34)cc2)CC1` [Example 187, 2-(1-(4-((4-(4-ethylpiperazin-1-yl)phenyl)amino)-5-oxo-5,6-dihydropyrimido[4,5-d]pyridazin-2-yl)piperidin-4-yl)acetonitrile], the IC50 in test [1] (read-out: IC50 Syk) was below 10 nM; in test [2] (read-out: IC50 JAK), below 50 nM. For the same compound, the inhibition at 1 µM in test [3] (setting [4]) was found to be 100%. Moreover, the EC50 in test [3] (setting [5]) was 12 nM.

Take `O=c1[nH]ncc2nc(N3CCCCCC3)nc(Nc3ccc(N4CCNCC4)cc3)c12` [Example 192, 2-(azepan-1-yl)-4-((4-(piperazin-1-yl)phenyl)amino)pyrimido[4,5-d]pyridazin-5(6H)-one]: the IC50 in test [1] (read-out: IC50 Syk) and in test [2] (read-out: IC50 JAK) was below 10 nM throughout. For the same compound, in test [3] (setting [4]), the inhibition at 1 µM was determined as 82%. Besides, the EC50 in test [3] (setting [5]) came out at 27 nM.

Consider `N#CCC1CCN(c2nc(Nc3ccc(N4CCNCC4)cc3)c3c(=O)[nH]ncc3n2)CC1` [Example 193, 2-(1-(5-oxo-4-((4-(piperazin-1-yl)phenyl)amino)-5,6-dihydropyrimido[4,5-d]pyridazin-2-yl)piperidin-4-yl)acetonitrile], for which the IC50 in test [1] (read-out: IC50 Syk) and in test [2] (read-out: IC50 JAK) was below 10 nM throughout. In test [3] (setting [4]), the inhibition at 1 µM was found to be 93%. The EC50 in test [3] (setting [5]) stood at 17 nM.

In the case of `N#CCC1CCN(c2nc(Nc3ccc(OCCN)cc3)c3c(=O)[nH]ncc3n2)CC1` [Example 200, 2-(1-(4-((4-(2-aminoethoxy)phenyl)amino)-5-oxo-5,6-dihydropyrimido[4,5-d]pyridazin-2-yl)piperidin-4-yl) acetonitrile], the results for the IC50 in test [1] (read-out: IC50 Syk) and in test [2] (read-out: IC50 JAK) were below 10 nM and below 50 nM, respectively. In addition, in test [3] (setting [4]), the inhibition at 1 µM is 71%. Moreover, in test [3] (setting [5]), the EC50 was found to be 66 nM.

Turning to `O=c1[nH]ncc2nc(N3CCCCCC3)nc(Nc3ccc(CCN4CCC(O)CC4)cc3)c12` [Example 201, 2-(azepan-1-yl)-4-((4-(2-(4-hydroxypiperidin-1-yl)ethyl)phenyl)amino)pyrimido[4,5-d]pyridazin-5(6H)-one], the IC50 in test [1] (read-out: IC50 Syk) and in test [2] (read-out: IC50 JAK) was below 10 nM in each case. The inhibition at 1 µM in test [3] (setting [4]) is 88%. In addition, the EC50 in test [3] (setting [5]) is 31 nM.

In the case of `O=C(O)CCN1CCN(c2ccc(Nc3nc(N4CCCCCC4)nc4cn[nH]c(=O)c34)cc2)CC1` [Example 208, 3-(4-(4-((2-(azepan-1-yl)-5-oxo-5,6-dihydropyrimido[4,5-d]pyridazin-4-yl)amino)phenyl)piperazin-1-yl) propanoic acid], the IC50 in test [1] (read-out: IC50 Syk) and in test [2] (read-out: IC50 JAK) was below 10 nM in each case. In addition, the inhibition at 1 µM in test [3] (setting [4]) is 21%. The EC50 in test [3] (setting [5]) turned out to be 14 nM.

On to `CC1(O)CCN(CCc2ccc(Nc3nc(N4CCCCCC4)nc4cn[nH]c(=O)c34)cc2)CC1` [Example 210, 2-(azepan-1-yl)-4-((4-(2-(4-hydroxy-4-methylpiperidin-1-yl)ethyl)phenyl)amino) pyrimido[4,5-d]pyridazin-5(6H)-one], for which the IC50 is below 50 nM in test [1] (read-out: IC50 Syk) and below 10 nM in test [2] (read-out: IC50 JAK). Moreover, in test [3] (setting [4]), the inhibition at 1 µM amounted to 79%. The EC50 in test [3] (setting [5]) amounted to 22 nM.

As to `O=c1[nH]ncc2nc(N3CCCCCC3)nc(Nc3ccc(CCN4CCN(CCO)CC4)cc3)c12` [Example 211, 2-(azepan-1-yl)-4-((4-(2-(4-(2-hydroxyethyl)piperazin-1-yl)ethyl)phenyl)amino)pyrimido[4,5-d]pyridazin-5(6H)-one], the IC50 in test [1] (read-out: IC50 Syk) and in test [2] (read-out: IC50 JAK) was below 50 nM each time. The inhibition at 1 µM in test [3] (setting [4]) was found to be 53%. Moreover, the EC50 in test [3] (setting [5]) is 49 nM.

On to `N#CCC1CCN(c2nc(Nc3ccc(CCN4CCN(CCO)CC4)cc3)c3c(=O)[nH]ncc3n2)CC1` [Example 212, 2-(1-(4-((4-(2-(4-(2-hydroxyethyl)piperazin-1-yl)ethyl)phenyl)amino)-5-oxo-5,6-dihydropyrimido[4,5-d]pyridazin-2-yl)piperidin-4-yl)acetonitrile], for which the IC50 in test [1] (read-out: IC50 Syk) and in test [2] (read-out: IC50 JAK) was below 50 nM in each case. Further, in test [3] (setting [4]), the inhibition at 1 µM amounted to 71%. Moreover, the EC50 in test [3] (setting [5]) is 28 nM.

`CC(C)(C(=O)O)N1CCN(c2ccc(Nc3nc(N4CCC(CC#N)CC4)nc4cn[nH]c(=O)c34)cc2)CC1` [Example 213, 2-(4-(4-((2-(4-(cyanomethyl)piperidin-1-yl)-5-oxo-5,6-dihydropyrimido[4,5-d]pyridazin-4-yl)amino)phenyl)piperazin-1-yl)-2-methylpropanoic acid]: the IC50 in test [1] (read-out: IC50 Syk) was below 10 nM; in test [2] (read-out: IC50 JAK), below 50 nM. Further, in test [3] (setting [4]), the inhibition at 1 µM came to 78%. The EC50 in test [3] (setting [5]) was determined as 33 nM.

Consider `CC(C)(O)C(=O)N1CCN(c2ccc(Nc3nc(N4CCCCCC4)nc4cn[nH]c(=O)c34)cc2)CC1` [Example 214, 2-(azepan-1-yl)-4-((4-(4-(2-hydroxy-2-methylpropanoyl)piperazin-1-yl)phenyl)amino)pyrimido[4,5-d]pyridazin-5(6H)-one], for which the IC50 in test [1] (read-out: IC50 Syk) and in test [2] (read-out: IC50 JAK) was below 10 nM throughout. The inhibition at 1 µM in test [3] (setting [4]) amounted to 78%. Also, the EC50 in test [3] (setting [5]) is 19 nM.

As for `N#CCC(=O)N1CCN(c2ccc(Nc3nc(N4CCCCCC4)nc4cn[nH]c(=O)c34)cc2)CC1` [Example 215, 3-(4-(4-((2-(azepan-1-yl)-5-oxo-5,6-dihydropyrimido[4,5-d]pyridazin-4-yl)amino)phenyl)piperazin-1-yl)-3-oxopropanenitrile], the IC50 in test [1] (read-out: IC50 Syk) and in test [2] (read-out: IC50 JAK) was below 10 nM each time. The inhibition at 1 µM in test [3] (setting [4]) came out at 96%. For the same compound, the EC50 in test [3] (setting [5]) came out at 12 nM.

`N#CCC1CCN(c2nc(Nc3ccc(N4CCC(CO)CC4)cc3)c3c(=O)[nH]ncc3n2)CC1` [Example 216, 2-(1-(4-((4-(4-(hydroxymethyl)piperidin-1-yl)phenyl)amino)-5-oxo-5,6-dihydropyrimido[4,5-d]pyridazin-2-yl)piperidin-4-yl)acetonitrile]: the IC50 in test [1] (read-out: IC50 Syk) and in test [2] (read-out: IC50 JAK) was below 10 nM throughout. Also, the inhibition at 1 µM in test [3] (setting [4]) was 92%. Besides, the EC50 in test [3] (setting [5]) worked out at 21 nM.

Turning to `N#CCC1CCN(c2nc(Nc3ccc(OCCN4CCC(CO)CC4)cc3)c3c(=O)[nH]ncc3n2)CC1` [Example 218, 2-(1-(4-((4-(2-(4-(hydroxymethyl)piperidin-1-yl)ethoxy)phenyl)amino)-5-oxo-5,6-dihydropyrimido[4,5-d]pyridazin-2-yl)piperidin-4-yl) acetonitrile], the IC50 in test [1] (read-out: IC50 Syk) and in test [2] (read-out: IC50 JAK) was below 50 nM in each case. Besides, the inhibition at 1 µM in test [3] (setting [4]) amounted to 33%. For the same compound, in test [3] (setting [5]), the EC50 turned out to be 123 nM.

For the compound `O=C(OCOP(=O)(O)O)C1CC12CCN(c1ccc(Nc3nc(N4CCCCCC4)nc4cn[nH]c(=O)c34)cc1)CC2` (centres unmarked) [Example 219, (phosphonooxy)methyl 6-(4-((2-(azepan-1-yl)-5-oxo-5,6-dihydropyrimido[4,5-d]pyridazin-4-yl)amino)phenyl)-6-azaspiro[2.5]octane-1-carboxylate], the IC50 in test [1] and in test [2] was below 10 nM in each case. Moreover, the inhibition at 1 µM in test [3] (RBL-2H3, read-out: Degranulation % inhibition at 1 μM) stood at 45%. The EC50 in test [3] (RBL-2H3, read-out: Degranulation EC50 (nM)) turned out to be 96 nM.
